The results in this text go back to PubChem BioAssay AID192 (DTP/NCI, 2004).

Several values for one entry are separate records, joined by “and”; a condition that tells them apart may be missing. Equal values may be shown once. Toxic doses and inconclusive results are not listed.

This assay concerns BDF1 mice, B16 melanoma ip, median survival T/C. Description: NCI In Vivo Anticancer Drug Screen. Data for tumor model B16 Melanoma (intraperitoneal) in B6D2F1 (BDF1) mice. The note with it: endpoint: median survival time, higher = longer survival. In a few lines: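 Transplantable tumor model; survival or tumor size measured; reported as T/C, treated over vehicle control.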
Setting [1] is: dose: 50.0 mg/kg/injection, schedule: Q01DX009 (ip), vehicle: Klucel (hydroxypropylcellulose) (HPC).
Setting [2] is: dose: 100.0 mg/kg/injection, schedule: Q01DX009 (ip), vehicle: Klucel (hydroxypropylcellulose) (HPC).
Where [3] appears, read: dose: 200.0 mg/kg/injection, schedule: Q01DX009 (ip), vehicle: Klucel (hydroxypropylcellulose) (HPC).
[4] abbreviates: dose: 400.0 mg/kg/injection, schedule: Q01DX009 (ip), vehicle: Klucel (hydroxypropylcellulose) (HPC).
Where [5] appears, read: dose: 50.0 mg/kg/injection, schedule: Q01DX009 (ip), vehicle: saline with Tween-80.
[6] abbreviates: dose: 100.0 mg/kg/injection, schedule: Q01DX009 (ip), vehicle: saline with Tween-80.
Where [7] appears, read: dose: 200.0 mg/kg/injection, schedule: Q01DX009 (ip), vehicle: saline with Tween-80.
The mark [8] stands for this setting: dose: 6.25 mg/kg/injection, schedule: Q01DX009 (ip), vehicle: Klucel (hydroxypropylcellulose) (HPC).
Where [9] appears, read: dose: 25.0 mg/kg/injection, schedule: Q01DX009 (ip), vehicle: saline with Tween-80.

As for `NC(=O)c1csc(C2OC(CO)C(O)C2O)n1` (configuration not stated), the T/C by setting is: (dose: 25.0 mg/kg/injection, schedule: Q01DX009 (ip), vehicle: water) 103 % of control; (dose: 50.0 mg/kg/injection, schedule: Q01DX009 (ip), vehicle: water) 99 % of control; (dose: 100.0 mg/kg/injection, schedule: Q01DX009 (ip), vehicle: water) 104 % of control; (dose: 200.0 mg/kg/injection, schedule: Q01DX009 (ip), vehicle: water) 111 % of control; (dose: 400.0 mg/kg/injection, schedule: Q01DX009 (ip), vehicle: water) 110 % of control; (dose: 800.0 mg/kg/injection, schedule: Q01DX009 (ip), vehicle: water) 99 % of control.
With `O=c1oc2ccccc2c(O)c1C(c1ccc(C(c2c(O)c3ccccc3oc2=O)c2c(O)c3ccccc3oc2=O)cc1)c1c(O)c2ccccc2oc1=O`, the T/C by setting is: under setting [1], 103 % of control; under setting [2], 100 % of control; under setting [3], 93 % of control.
On to `NC(CCCC(=O)O)P(=O)(O)O` (configuration not stated), for which the T/C was 98 % of control under setting [1] and 98 % of control under setting [2].
As for `ClC1OC(Cl)(Cl)C(Cl)(Cl)OC1(Cl)Cl` (configuration not stated), the T/C is 93 % of control under setting [2], 93 % of control under setting [3] and 86 % of control under setting [4].
`O=C1C=C2C(=CCOC2O)O1` (configuration not stated): the T/C is 96 % of control (dose: 0.39 mg/kg/injection, schedule: Q01DX009 (ip), vehicle: Klucel (hydroxypropylcellulose) (HPC)); 106 % of control (dose: 0.75 mg/kg/injection, schedule: Q01DX009 (ip), vehicle: Klucel (hydroxypropylcellulose) (HPC)); 96 % of control (dose: 1.5 mg/kg/injection, schedule: Q01DX009 (ip), vehicle: Klucel (hydroxypropylcellulose) (HPC)); 86 % of control (dose: 3.0 mg/kg/injection, schedule: Q01DX009 (ip), vehicle: Klucel (hydroxypropylcellulose) (HPC)).
With `C[As](C)Sc1ccnc(S[As](C)C)n1`, the T/C reads like this: under setting [1], 100 % of control; under setting [2], 119 % of control.
Consider `CC12C=CC(C=C1)C(O)C2` (configuration not stated), for which the T/C runs as follows: (dose: 100.0 mg/kg/injection, schedule: Q04DX003 (ip), vehicle: saline with Tween-80) 112 % of control; (dose: 200.0 mg/kg/injection, schedule: Q04DX003 (ip), vehicle: saline with Tween-80) 93 % of control; (dose: 400.0 mg/kg/injection, schedule: Q04DX003 (ip), vehicle: saline with Tween-80) 101 % of control.
With `CN1CCC=C(CN2c3ccccc3Sc3ccc(Cl)cc32)C1`, the T/C (dose: 12.5 mg/kg/injection, schedule: Q01DX009 (ip), vehicle: saline) was 95 % of control and the T/C (dose: 25.0 mg/kg/injection, schedule: Q01DX009 (ip), vehicle: saline) was 94 % of control.
As for `CCSc1ccc2c(cc1=O)[C@@H](NC1OC(CO)C(O)C(O)C1O)CCc1cc(OC)c(OC)c(OC)c1-2` (some centres not stated), the T/C is 101 % of control (dose: 50.0 mg/kg/injection, schedule: Q01DX009 (ip), vehicle: other) and 109 % of control (dose: 100.0 mg/kg/injection, schedule: Q01DX009 (ip), vehicle: other).
Turning to `O=C(/C=C/C(=O)Oc1c(Cl)c(Cl)c(Cl)c(Cl)c1Cl)Oc1c(Cl)c(Cl)c(Cl)c(Cl)c1Cl`, the T/C under setting [2] was 86 % of control.
As to `CC[C@H](C)[C@H](NC(=O)OC(C)(C)C)C(=O)ON1C(=O)CCC1=O`, the T/C reads like this: under setting [5], 92 % of control; under setting [6], 97 % of control; under setting [7], 90 % of control.
As to `Cc1ccc([N+](=O)[O-])c(OC(=O)Nc2ccccc2Cl)c1`, the T/C was 100 % of control (dose: 100.0 mg/kg/injection, schedule: Q04DX003 (ip), vehicle: Klucel (hydroxypropylcellulose) (HPC)); 93 % of control (dose: 200.0 mg/kg/injection, schedule: Q04DX003 (ip), vehicle: Klucel (hydroxypropylcellulose) (HPC)); 93 % of control (dose: 400.0 mg/kg/injection, schedule: Q04DX003 (ip), vehicle: Klucel (hydroxypropylcellulose) (HPC)).
In the case of `CC(CC=O)CCCC(C)(C)O` (configuration not stated), the T/C under setting [2] is 101 % of control and the T/C under setting [3] was 97 % of control.
As for `CCCCCCCCCCCCOCCOCCOCC(N)=O`, the T/C reads like this: (dose: 100.0 mg/kg/injection, schedule: Q01DX009 (ip), vehicle: saline) 112 % of control; (dose: 200.0 mg/kg/injection, schedule: Q01DX009 (ip), vehicle: saline) 109 % of control; (dose: 400.0 mg/kg/injection, schedule: Q01DX009 (ip), vehicle: saline) 90 % of control.
For the molecule `CC(C)=CCC1(O)C(=O)c2ccccc2C1(O)C(=O)O` (configuration not stated), the T/C is, setting by setting: (dose: 25.0 mg/kg/injection, schedule: Q01DX009 (ip), vehicle: Klucel (hydroxypropylcellulose) (HPC)) 92 % of control; under setting [1], 101 % of control; under setting [2], 90 % of control; under setting [3], 93 % of control.
In the case of `Cc1ccc(NC(=O)N(CCCl)N=O)cc1C`, the T/C was 150 % of control (dose: 3.12 mg/kg/injection, schedule: Q01DX009 (ip), vehicle: Klucel (hydroxypropylcellulose) (HPC)) and 150 % of control under setting [8].
Consider `CSc1nc(NC(C)C)nc(NC(C)C)n1`, for which the T/C is, setting by setting: under setting [9], 102 % of control; under setting [5], 92 % of control; under setting [6], 102 % of control.
For `O=[N+]([O-])c1ccc(S(=O)(=O)N/N=C\c2ccc(Cl)c(Cl)c2)cc1`, the T/C is, setting by setting: (dose: 12.5 mg/kg/injection, schedule: Q01DX009 (ip), vehicle: saline with Tween-80) 109 % of control; under setting [9], 114 % of control; under setting [5], 112 % of control.
For `COc1cccc2c1C(=O)c1c(O)c3c(c(O)c1C2=O)C[C@@](O)(C(=O)COC(=O)c1cccnc1)C[C@@H]3OC1CC(N)C(O)C(C)O1` (some centres not stated), the T/C was 92 % of control (dose: 0.19 mg/kg/injection, schedule: Q01DX001 (ip), vehicle: water); 101 % of control (dose: 0.38 mg/kg/injection, schedule: Q01DX001 (ip), vehicle: water); 108 % of control (dose: 0.75 mg/kg/injection, schedule: Q01DX001 (ip), vehicle: water); 113 % of control and 239 % of control and 249 % of control (dose: 3.0 mg/kg/injection, schedule: Q01DX001 (ip), vehicle: water); 103 % of control and 250 % of control and 255 % of control (dose: 6.0 mg/kg/injection, schedule: Q01DX001 (ip), vehicle: water); 251 % of control and 323 % of control (dose: 12.0 mg/kg/injection, schedule: Q01DX001 (ip), vehicle: water). The T/C (dose: 24.0 mg/kg/injection, schedule: Q01DX001 (ip), vehicle: water) was 325 % of control.
Regarding `COc1cccc2c1C(=O)c1c(O)c3c(c(O)c1C2=O)C[C@H](O)C[C@@H]3OC1CC(N)C(O)C(C)O1` (some centres not stated), the T/C is, setting by setting: (dose: 12.5 mg/kg/injection, schedule: Q01DX001 (ip), vehicle: water) 169 % of control; (dose: 50.0 mg/kg/injection, schedule: Q01DX001 (ip), vehicle: water) 110 % of control and 169 % of control and 267 % of control; (dose: 100.0 mg/kg/injection, schedule: Q01DX001 (ip), vehicle: water) 110 % of control.
Consider `Cc1c(CNc2ccc(C(=O)NC(CC(=O)O)C(=O)O)cc2)ccc2nc(N)nc(N)c12` (configuration not stated), for which the T/C is 94 % of control (dose: 0.02 mg/kg/injection, schedule: Q01DX009 (ip), vehicle: saline with Tween-80); 94 % of control (dose: 0.04 mg/kg/injection, schedule: Q01DX009 (ip), vehicle: saline with Tween-80); 103 % of control (dose: 0.04 mg/kg/injection, schedule: Q01DX009 (ip), vehicle: saline); 86 % of control (dose: 0.09 mg/kg/injection, schedule: Q01DX009 (ip), vehicle: saline with Tween-80); 100 % of control (dose: 0.09 mg/kg/injection, schedule: Q01DX009 (ip), vehicle: saline); 97 % of control (dose: 0.18 mg/kg/injection, schedule: Q01DX009 (ip), vehicle: saline with Tween-80). Further, the T/C (dose: 0.19 mg/kg/injection, schedule: Q01DX009 (ip), vehicle: saline) is 111 % of control and the T/C (dose: 0.78 mg/kg/injection, schedule: Q01DX009 (ip), vehicle: saline with Tween-80) was 118 % of control.
Consider `COc1ccc2ccccc2c1C1NC(=O)c2ccccc2N1` (configuration not stated), for which the T/C reads like this: under setting [1], 106 % of control; under setting [2], 108 % of control; under setting [3], 109 % of control; under setting [4], 115 % of control.
On to `O=C1C=C(C2OC(CO)C(O)C2O)C(=O)N1` (configuration not stated), for which the T/C by setting is: under setting [8], 107 % of control; (dose: 12.5 mg/kg/injection, schedule: Q01DX009 (ip), vehicle: Klucel (hydroxypropylcellulose) (HPC)) 99 % of control and 102 % of control.
For `Cc1ccc(C(C)(N=[N+]=[N-])c2ccccc2)cc1C` (configuration not stated), the T/C was 94 % of control under setting [9], 93 % of control under setting [5], 90 % of control under setting [6] and 90 % of control under setting [7].
In the case of `CC1c2cccc(Cl)c2C(=O)c2c(Cl)cccc21`, the T/C is 102 % of control under setting [2], 100 % of control under setting [3] and 102 % of control under setting [4].
